Results on eight compounds are retold here after patent publication US20250289785A1, “INDOLE DERIVATIVE, METHOD FOR PREPARING SAME, AND USE THEREOF” (MITOIMMUNE THERAPEUTICS INC., priority 2021, published 2025).

For data set [1], the system named is MLE-12 cells. In words: Cell death protective effect in lung epithelial cells against RSL3 (LDH). It counts as cell-based, rat. Particulars: MLE-12, RSL3, 1 μM, 24 h. Here is the method:
In order to identify the protective effect on lung epithelial cells, MLE-12 cells were divided into 96-well plates by 5×10^3 and cultured for 18 to 24 hours. The compounds of Examples were diluted to final concentrations of 0.03 and 0. μM, treated in each well, and incubated for 20 minutes. RSL3 was treated to have final concentrations of 1. μM, respectively, and cultured for 24 hours. In order to identify the protective effect of each compound, the degree of LDH extracellular secretion was measured using cytotoxicity LDH assay kit [Dojindo; CK12]. Briefly, at the time when the treatment of the cells with RSL3 for 24 hours is completed, the supernatants containing the cells are taken by 70 μL and transferred to a new 96-well plate. The assay buffer included in the kit is added in an amount of 70 μL/well (the same amount as the sample) thereto, and then the plate is wrapped with a foil and the reaction is performed at room temperature for 15 minutes.

The subject of data set [2] is H9C2 cells. In words: Cell death protective effect in cardiac myocytes against Erastin, glutamate and RSL3 (LDH). It counts as cell-based, white mouse. Particulars: 24 h. On the procedure:
In order to identify the protective effect on cardiac cells, H9C2 cells were divided into 96-well plates by 1×10^4 and cultured for 18 to 24 hours. The compounds of Examples were diluted to final concentrations of 0.1 and 1.0 μM, treated in each well, and incubated for 15 to 20 minutes. Erastin, glutamate, and RSL3 were treated to have final concentrations of 1 μM, 25 mM, and 0.5 μM, respectively, and cultured for 24 hours. In order to identify the protective effect of each compound, the degree of LDH extracellular secretion was measured using cytotoxicity LDH assay kit [Dojindo; CK12]. Briefly, at the time when the treatment of the cells with Erastin, glutamate, and RSL3 for 24 hours is completed, the supernatants containing the cells are taken by 70 μL and transferred to a new 96-well plate. The assay buffer included in the kit is added in an amount of 70 μL/well (the same amount as the sample) thereto, and then the plate is wrapped with a foil and the reaction is performed at room temperature for 15 minutes.

Data set [3] in a line: Plasma and brain concentration after oral administration to ICR mice (HPLC-MS/MS). It counts as in vivo. The conditions noted are these: 10 mg/kg; for concentration at 2 h / concentration at 24 h / AUC(0-t): ICR, mouse, po. On the procedure: […] parameters can be represented as maximum concentration in plasma (Cmax), time taken until maximum concentration in plasma (Tmax), area under the plasma concentration-time curve (AUClast and AUCinf), and half-life (t1/2), and the like.
The compound of example 2 was orally administered to ICR mice at a dose of 10 mg/kg, and drug concentration in mouse plasma was measured using HPLC-MS/MS spectroscopy at 0.5, 1, 2, 4, 8 and 24 hours. The mouse brains were removed at 2 or 24 hours, and drug concentration in the brain was measured using HPLC-MS/MS spectroscopy. The area under the plasma concentration v. time curve (AUCinf) was measured to be […], and at 2 hours after administration drug concentration in plasma was 546 ng/mL and brain drug concentration was measured at 1043 ng/mL. […] Further, at 24 hours after administration, for Embodiment 2, drug concentration in plasma was measured to be 4.7 ng/mL and drug concentration in the brain was measured at 5.7 ng/mL. With the brain-plasma drug concentration ratio at 1.23, drug exposure in the brain was still high.
The Comparative Example compound was orally administered to ICR mice at a dose of 10 mg/kg, and drug concentration in mouse plasma was measured using HPLC-MS/MS spectroscopy at 0.5, 1, 2, 4, 8 and 24 hours. The mouse brains were removed at 2 or 24 hours, and drug concentration in the brain was measured using HPLC-MS/MS spectroscopy.

Data set [4] has as its system H9C2 cells. In words: Maintenance of intracellular calcium level in heart cells treated with t-BHP (FLIPR Calcium 6). Particulars: H9C2, t-BHP 150 μM. In kind it is cell-based, rat. Here is the method: To examine the maintenance effect on calcium level in heart cells, H9C2 cells were divided into a 96-well plate by 1.5×10^4 cells/well and cultured for 24 hours. To measure intracellular calcium level, a FLIPR Calcium 6 assay kit (Molecular devices; #R8190) was used. Following the experimental method provided by the manufacturer, cells were treated with probenecid and calcium-sensitive dye for 1.75 hours, and then the cells were treated with the compound of Example 2 for 0.25 hours (the final concentration of the compound was 0.02 or 0.01 μM). And the cells were treated with t-BHP to a final concentration of 150 μM, then intracellular calcium level was measured every 30 seconds in real time.
FIG. 1 is a graph regarding the regulatory effect of the compound of Example 2 on calcium level under t-BHP treatment. The ΔF/F(Max−Min) value on the vertical axis is the difference between the maximum and minimum fluorescence intensity values of the calcium-sensitive dye after treatment with t-BHP (150 μM), and this value increases as intracellular calcium level increases.
A general note: A change in cytosolic calcium serves as a functional read-out for many receptors and channels.

Where [5] appears, read: H9C2, Erastin, 1 μM, compound 0.1 μM.
Where [6] appears, read: H9C2, Erastin, 1 μM, compound 1.0 μM.
Setting [7] is: H9C2, Glutamate, 25 mM, compound 0.1 μM.
Where [8] appears, read: H9C2, Glutamate, 25 mM, compound 1.0 μM.
Setting [9] is: H9C2, RSL3, 0.5 μM, compound 0.1 μM.
The mark [10] stands for this setting: H9C2, RSL3, 0.5 μM, compound 1.0 μM.
The mark [11] stands for this setting: ICR mouse, 2 hours after administration.

SMILES strings stand for the structures. Like-named read-outs stand apart in the source and are kept apart here.

`COCc1cc(NC2CCOCC2)c2[nH]c(-c3ccccc3)cc2c1` [Example 1, 5-(methoxymethyl)-2-phenyl-N-tetrahydropyran-4-yl-1H-indol-7-amine]: the “inhibition (%)” value in data set [1] (compound 0.03 μM) came to 88%; in data set [1] (compound 0.3 μM) it was 100%; in data set [2] (setting [5]) it was 100%; in data set [2] (setting [6]), 100%; in data set [2] (setting [7]), 97%; in data set [2] (setting [8]), 98%. Further, the “inhibition (%)” value in data set [2] (setting [9]) and in data set [2] (setting [10]) was 100% each time.
Take `COCc1cc(NC2CCCC2)c2[nH]c(-c3ccccc3)cc2c1` [Example 2, N-cyclopentyl-5-(methoxymethyl)-2-phenyl-1H-indol-7-amine]: the “inhibition (%)” value was found to be 84% in data set [1] (compound 0.03 μM); 9% in data set [1] (compound 0.3 μM); 100% in data set [2] (setting [5]); 100% in data set [2] (setting [6]); 97% in data set [2] (setting [7]); 98% in data set [2] (setting [8]). The “inhibition (%)” value in data set [2] (setting [9]) and in data set [2] (setting [10]) was 100% throughout. Besides, the brain drug concentration in data set [3] (setting [11]) came to 1043.2 ng/mL. Also, in data set [3] (setting [11]), the “drug concentration in plasma” value amounted to 546.1 ng/mL. Besides, the “AUClast, Brain” value in data set [3] (ICR mouse, from the 2 and 24 hr samples) is 12581.1 ng·h/g. Further, in data set [3] (ICR mouse, plasma, read-out: area under the plasma concentration v. time curve (AUCinf)), the AUC(0-inf) stood at 4960 ng·h/mL. Also, the concentration at 2 h worked out at 1040 ng/mL in data set [3] (brain, 2 hours after administration, read-out: brain drug concentration) and 546 ng/mL in data set [3] (plasma, 2 hours after administration, read-out: drug concentration in plasma). The concentration at 24 h was 5.7 ng/mL in data set [3] (brain, 24 hours after administration, read-out: drug concentration in the brain) and 4.7 ng/mL in data set [3] (plasma, 24 hours after administration, read-out: drug concentration in plasma). The AUC(0-t) amounted to 6600 ng·h/mL in data set [3] (plasma, from the 2 and 24 hr samples, read-out: AUClast, Plasma); 4940 ng·h/mL in data set [3] (plasma, plasma, read-out: 0.5~24 hr AUClast); 4940 ng·h/mL in data set [3] (plasma, plasma, read-out: area under the plasma concentration v. time curve (AUClast)). Also, in data set [3] (brain/plasma, ICR mouse, 2 hours after administration, read-out: brain-plasma drug concentration ratio (B/P ratio)), the Kp at 2 h amounted to 1.91. Moreover, the Kp at 24 h in data set [3] (brain/plasma, ICR mouse, 24 hours after administration, read-out: brain-plasma drug concentration ratio (B/P ratio)) was determined as 1.23. In addition, in data set [3] (brain/plasma, ICR mouse, read-out: AUClast B/P ratio), the Kp came out at 1.9. Further, the “intracellular calcium level, ΔF/F(Max−Min)” value is recorded as “significantly decreased” in data set [4] (compound 0.01 μM) and “within normal range” in data set [4] (compound 0.02 μM).
In the case of `COCc1cc(NC2CC[S+]([O-])CC2)c2[nH]c(-c3ccccc3)cc2c1` (centres unmarked) [Example 14, 5-(methoxymethyl)-N-(1-oxothian-4-yl)-2-phenyl-1H-indol-7-amine], the “inhibition (%)” value in data set [1] (compound 0.03 μM) was determined as 50%; in data set [1] (compound 0.3 μM), 100%; in data set [2] (setting [5]) it was 100%; in data set [2] (setting [6]), 100%; in data set [2] (setting [7]), 97%; in data set [2] (setting [8]), 99%. Besides, the “inhibition (%)” value in data set [2] (setting [9]) and in data set [2] (setting [10]) was 100% throughout.
Turning to `CCOCc1cc(NC2CCCC2)c2[nH]c(-c3ccccc3)cc2c1` [Example 19, N-cyclopentyl-5-(ethoxymethyl)-2-phenyl-1H-indol-7-amine], the “inhibition (%)” value in data set [1] (compound 0.03 μM) is recorded as 93%; in data set [1] (compound 0.3 μM) it was 100%; in data set [2] (setting [5]) it was 100%; in data set [2] (setting [6]), 100%; in data set [2] (setting [7]) it was 99%; in data set [2] (setting [8]) it was 100%. The “inhibition (%)” value in data set [2] (setting [9]) and in data set [2] (setting [10]) was 100% each time.
As for `CCOCc1cc(NC2CCOCC2)c2c(c1)c(COC)c(-c1ccccc1)n2C` [Example 29, 5-(ethoxymethyl)-3-(methoxymethyl)-1-methyl-2-phenyl-N-(tetrahydro-2H-pyran-4-yl)-1H-indol-7-amine], the “inhibition (%)” value is 0% in data set [1] (compound 0.03 μM); 95% in data set [1] (compound 0.3 μM); 1% in data set [2] (setting [5]); 100% in data set [2] (setting [6]); 6% in data set [2] (setting [7]); 95% in data set [2] (setting [8]). Besides, the “inhibition (%)” value in data set [2] (setting [9]) was 10%; in data set [2] (setting [10]), 100%.
Turning to `COCCc1cc(NC2CCOCC2)c2[nH]c(-c3ccccc3)cc2c1` [Example 41, 5-(2-methoxyethyl)-2-phenyl-N-(tetrahydro-2H-pyran-4-yl)-1H-indol-7-amine], the “inhibition (%)” value in data set [1] (compound 0.03 μM) stood at 95%; in data set [1] (compound 0.3 μM) it was 97%; in data set [2] (setting [5]), 100%; in data set [2] (setting [6]) it was 100%; in data set [2] (setting [7]) it was 99%; in data set [2] (setting [8]), 98%. The “inhibition (%)” value in data set [2] (setting [9]) and in data set [2] (setting [10]) was 100% each time.
In the case of `CCOCc1cc(NC2CCOCC2)c2[nH]c(-c3ccccc3)c(-c3ncc[nH]3)c2c1` [Example 46, 5-(ethoxymethyl)-3-(1H-imidazol-2-yl)-2-phenyl-N-(tetrahydro-2H-pyran-4-yl)-1H-indole-7-amine], the “inhibition (%)” value in data set [1] (compound 0.03 μM) is reported as 0%; in data set [1] (compound 0.3 μM), 7%; in data set [2] (setting [5]) it was 4%; in data set [2] (setting [6]), 100%; in data set [2] (setting [7]), 4%; in data set [2] (setting [8]), 94%. Moreover, the figures for the “inhibition (%)” value in data set [2] (setting [9]) and in data set [2] (setting [10]) were 15% and 9%, respectively.
For `CCOC(=O)c1ccc(NC2CCCCC2)c(N)c1` [Ferrostatin-1, reference compound], the “inhibition (%)” value in data set [1] (compound 0.03 μM) was found to be 25%; in data set [1] (compound 0.3 μM) it was 98%; in data set [2] (setting [5]), 100%; in data set [2] (setting [6]) it was 100%; in data set [2] (setting [7]), 95%; in data set [2] (setting [8]), 97%. Further, the “inhibition (%)” value in data set [2] (setting [9]) came to 83%; in data set [2] (setting [10]) it was 100%.
